Measurements published in patent US20100022404A1, “Gene/protein marker for prediction or diagnosis of pharmacological efficacy of aurora a inhibitor” (priority 2006, published 2010).

Columns and labels:
[1] = tested on: Aurora B (Thr232) phosphorylation; assay: Western blotting of total Aurora B and phospho-Aurora B (Thr232) in synchronized HeLa S3 cells with Aurora inhibitors (Example 7); assay type: cell-based, human; settings: 300 nM added 4 hours after release, sampling 0 to 24 hours, FIG. 24
Protocol: First, HeLa S3 cells were synchronized at the GI/S boundary by the above-mentioned double-thymidine block, and after 4 hours from the start of release, a control (DMSO, final 0.5%), an Aurora A-selective inhibitor 6-((4-(2,3-difluorobenzoyl)piperazin-1-yl)methyl)-N-thiazol-2-ylpyridin-2-amine (in FIG. 24, this is shown as “Aurora A Inhibitor 1”), an Aurora B inhibitor ZM477439 (J. Cell. Biol., Vol. 161, p. 267, 2003) or a pan-Aurora inhibitor VX-680 was added in an amount of 300 nM, followed by sampling at regular intervals for 0 to 24 hours. Next, the samples were analyzed for total Aurora B and phospho-Aurora B (Thr232) expression by western blotting.

[2] = tested on: histone H3 (Ser28) phosphorylation; assay: Western blotting of histone H3 Ser28 and Ser10 phosphorylation in asynchronous HeLa S3 cells (Example 8); assay type: cell-based, human; settings: concentration series, compared with phospho-Aurora B (Thr232), FIG. 26
[3] = tested on: PD marker candidate genes (BIRC5, KNTC2, PRC1, TACC3, DLG7) in HeLa-S3 cells; assay: Real-time PCR of PD marker candidate genes after treatment with Aurora A inhibitor (Example 2); assay type: cell-based, human; settings: 24 hours, FIGS. 6 to 10
Protocol: A predetermined concentration of 6-((4-(2,3-difluorobenzoyl)piperazin-1-yl)methyl)-N-thiazol-2-ylpyridin-2-amine was acted on HeLa-S3 cells; and after 24 hours, the cells were collected, the total RNA was isolated and then converted into cDNA, and this was processed for real-time PCR in the same manner as in Example 1.

[4] = tested on: PD marker candidate genes in HeLa-luc cancer graft; assay: Expression change of PD marker candidate genes in planted cancer, continuous administration to rat (Example 3); assay type: in vivo, F344/N Jcl-rnu female nude rat; settings: nude rat with HeLa-luc graft, intravenous drip infusion for 48 hours
Protocol: (§1) First, a cervical cancer strain HeLa-luc cells were subcutaneously transplanted to the back of an F344/N Jcl-rnu female nude rat. After 1 week, a […] cancer nude rat was subjected to femoral vein cannulation operation; and using a syringe pump, an Aurora A inhibitor 6-((4-(2-fluoro-3-(trifluoromethyl)benzoyl)piperazin-1-yl)methyl)-N-1H-pyrazol-3-ylpyrazin-2-amine was administered by intravenous drip infusion for 48 hours. After the administration, the collected cancer graft and the skin specimen were frozen and stored in liquid nitrogen.
Next, the total RNA was isolated from the collected cancer graft and formed into cDNA, which was checked for the expression change of the PD marker candidate genes. In addition to 5 genes identified in culture cells, Aurora A (AurA) and Aurora B (AurB) were also investigated as candidate genes. The primer probe sets for Aurora A and B are as follows. For every primer and probe, a human gene was used as the template.

[5] = tested on: Aurora B (Thr232) phosphorylation; assay: Western blotting of phospho-Aurora B (Thr232), Aurora B, Survivin, Plk1 in asynchronous HeLa S3 cells with Aurora A-selective inhibitor (Example 6); assay type: cell-based, human; settings: for ratio of phospho-Aurora B/Aurora B: based on the compound concentration 0 nM of 1
Protocol: (§2) First, asynchronously-cultured HeLa S3 cells were planted in an amount of 1×10^6 cells, and incubated overnight at 37° C. in 5% CO2. At 10:00 on the next day, the medium was exchanged with a medium to which 6-((4-(3-chloro-2-fluorobenzoyl)piperazin-1-yl)methyl)-N-thiazol-2-ylpyridin-2-amine had been added to be a final concentration of 0, 30, 100, 300, 1000, 3000, 10000, 30000 nM, and then, after 8 hours and 24 hours, the cells were peeled with trypsin and collected. A half of the cells was analyzed by western blotting; ¼ of the cells were analyzed for cell cycle through flow cytometry; and the last remaining ones were analyzed for phosphorylation of histone H3 (Ser10). The cell samples processed in the same manner were analyzed for expression profiling through TaqMan-PCR.

[6] = tested on: histone H3 (Ser10) phosphorylation; assay: Histone H3 (Ser10) phosphorylation by flow cytometry in HeLa S3 cells (Example 6); assay type: cell-based, human; settings: FIG. 23
Protocol: as §2

[7] = tested on: HeLa S3 cells; assay: Cell cycle analysis by flow cytometry in asynchronous HeLa S3 cells with Aurora A-selective inhibitor (Example 6); assay type: cell-based, human; settings: 8 hours and 24 hours, FIGS. 20, 21
Protocol: as §2

[8] = tested on: PD marker candidate genes in rat skin; assay: Expression change of PD marker candidate genes in skin, continuous administration to rat (Example 4); assay type: in vivo; settings: same rat skin as Example 3 (intravenous drip infusion for 48 hours); FIGS. 13 to 16
Protocol: as §1
The same rat skin as that used in Example 3 was checked for the expression change of PD marker candidate genes through real-time PCR. The primers of the candidate genes in the rat are as shown below. For every primer and probe, a rat gene was used as the template. The probe was modified with FAM/TAMRA.

[9] = HeLa S3 cells, 8 hours and 24 hours
[10] = HeLa S3 cells, expression admitted in the background with no compound addition

## O=C(c1cccc(F)c1F)N1CCN(Cc2cccc(Nc3nccs3)n2)CC1 [6-((4-(2,3-difluorobenzoyl)piperazin-1-yl)methyl)-N-thiazol-2-ylpyridin-2-amine]
[1]
  Aurora B expression: expressed Aurora B to a high level even after 10 hours
  phospho-Aurora B (Thr232) expression: remarkably increased
[2]
  phospho-histone H3 (Ser28) induction by inhibitor: concentration-dependent induction
[3]
  expression level of the PD marker candidate genes (BIRC5, KNTC2, PRC1, TACC3, DLG7): increased dependently on the Aurora A inhibitor concentration

## O=C(c1cccc(C(F)(F)F)c1F)N1CCN(Cc2cncc(Nc3cc[nH]n3)n2)CC1 [6-((4-(2-fluoro-3-(trifluoromethyl)benzoyl)piperazin-1-yl)methyl)-N-1H-pyrazol-3-ylpyrazin-2-amine]
[4]
  expression of BIRC5 in cancer graft: significantly increased
  expression of DLG7 in cancer graft: significantly increased
  peak of the expression change (dose): 1 mpk
[4]; FIGS. 11 and 12
  expression level of the PD marker candidate genes in cancer graft: increased

## O=C(c1cccc(Cl)c1F)N1CCN(Cc2cccc(Nc3nccs3)n2)CC1 [6-((4-(3-chloro-2-fluorobenzoyl)piperazin-1-yl)methyl)-N-thiazol-2-ylpyridin-2-amine]
[5]; HeLa S3 cells
  concentration range in which Aurora B inhibition begins (phosphorylation of Aurora B again inhibited): > 30 µM
[5]; HeLa S3 cells, 0-30000 nM, exposure 8 hours and 24 hours, FIG. 22
  expression of phospho-Aurora B (Thr232): increased dependently on the administration concentration
[5]; [9]
  concentration of phosphorylation depression of Aurora B (considered Aurora B inhibition): ≥ 30 µM
  expression level of Aurora B: did not change so much
[5]; [10]
  expression induction window of Plk1: at most 3.5 times
  expression induction window of Survivin: at most 3.5 times
[5]; exposure period of 8 hours
  ratio of phospho-Aurora B/Aurora B: at most 16 times
[5]; exposure period of 24 hours
  ratio of phospho-Aurora B/Aurora B: up to 10 times
[6]
  Histone H3 (Ser10) phosphorylation in flow cytometry: could not take a large window
[7]
  concentration from which the proportion of the M-stage began to increase: around 300 nM
  concentration up to which the M-stage was kept: around 10 μM

## Cc1cc(Nc2cc(N3CCN(C)CC3)nc(Sc3ccc(NC(=O)C4CC4)cc3)n2)n[nH]1 [VX-680]
[1]
  Aurora B expression: detected on the same level as that in the control
  phospho-Aurora B (Thr232) expression: no phospho-Aurora B was detected at all
[2]
  phospho-histone H3 (Ser28) induction by inhibitor: did not have a phosphorylation band at all

## COc1cc2c(Nc3ccc(NC(=O)c4ccccc4)cc3)ncnc2cc1OCCCN1CCOCC1 [ZM477439]
[1]
  Aurora B expression: detected on the same level as that in the control
  phospho-Aurora B (Thr232) expression: no phospho-Aurora B was detected at all

## O=C(O)[C@]1(Cc2cccc(Nc3nccs3)n2)CC[C@@H](Oc2cccc(Cl)c2F)CC1 [trans-4-(3-chloro-2-fluorophenoxy)-1-((6-(1,3-thiazol-2-ylamino)pyridin-2-yl)methyl)cyclohexanecarboxylic acid]
[8]
  expression level of the candidate genes in rat skin: significantly increased
